We go through 14 molecules from patent US12258337B2, “Bicyclic CX3CR1 receptor agonists” (Board of Regents, The University of Texas System, priority 2019, dated 2025).

Structures are written as SMILES. Some results are limits rather than exact numbers.

The target in assay [1] is T1, mCX3CR1 (Mus musculus, UniProt Q9Z0D9).
T1 construct: expressed in transfected cells; stably expresses a Ca2+ sensitive photo-protein
T1 sequence (Q9Z0D9 1-354): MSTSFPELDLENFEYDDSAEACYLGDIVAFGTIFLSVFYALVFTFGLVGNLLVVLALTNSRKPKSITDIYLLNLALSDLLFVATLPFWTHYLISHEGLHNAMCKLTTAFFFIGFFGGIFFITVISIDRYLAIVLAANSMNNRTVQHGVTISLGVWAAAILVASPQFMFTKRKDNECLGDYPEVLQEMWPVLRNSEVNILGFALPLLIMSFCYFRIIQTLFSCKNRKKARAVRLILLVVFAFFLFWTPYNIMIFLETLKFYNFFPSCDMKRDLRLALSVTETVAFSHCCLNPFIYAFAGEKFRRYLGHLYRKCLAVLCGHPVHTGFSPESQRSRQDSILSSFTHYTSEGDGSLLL
Briefly: Ga16 assay, CX3CR1 agonism, Ca2+ sensitive photo-protein readout (FLIPRTETRA). The conditions noted are these: mouse CX3CR1 cell line. The assay is classed as cell-based. The gist of the method: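 Cells expressing human, mouse or rat CX3CR1 with a stably expressed Ca2+-sensitive photoprotein were loaded with 10 μM coelenterazine in tyrode buffer pH 7.4 for 3 h at room temperature. Agonist-mode luminescence kinetics were recorded for 90 s after compound injection on FLIPRTETRA. Dose-response runs were done in quadruplicate, with fractalkine as the reference agonist.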

The subject of assay [2] is THP-1 cell adhesion to HepG2 cells. Briefly: CX3CR1-dependent THP-1 cell adhesion to HepG2 cells. It counts as cell-based. The settings on record: THP-1 pre-treated with compound 30 min, FIG. 1. The method, then:
CX3CR1 Agonists Prevent CX3CR1-Dependent THP-1 Cell Adhesion to HepG2 Cells
This assay measures the adhesion of THP-1 monocytes, which constitutively express CX3CR1, to HepG2 cells, a fractalkine-expressing cell line. Briefly, HepG2 cells were seeded at 80,000 cells per well in 96-well plates and allowed to form a monolayer overnight. The following day, THP-1 cells (at 2×10^6 cells/mL) were fluorescently labeled with Calcein-AM (5 μM) and pre-treated with compound at the doses indicated for 30 min. Labeled THP-1 cells were subsequently seeded (50,000/well) into the HepG2-containing plates and incubated for 30 min before imaging for Calcein-AM signal on the INCell Analyzer Imaging System. After four washes, the plates were imaged once again to calculate THP-1 cell adhesion, as measured by the percentage of cells remaining on the plates. […] These agonists behave as functional antagonists in the cell adhesion assay by blocking the interaction between CX3CR1 and fractalkine.

Assay [3] deals with T2, mouse CX3CR1 receptor (Mus musculus, UniProt Q9Z0D9).
T2 construct: expressed in transfected cells; host or cells: CHO-K1 cell membranes
T2 sequence (Q9Z0D9 1-354): T1 sequence (Q9Z0D9 1-354)
Briefly: GTPγ[35S] Scintillation Proximity Assay, CHO-K1 cell membranes. The assay is classed as biochemical. The method, then:
(§1) GTPγ[^35S] Scintillation Proximity Assay
(§2) Compounds were tested for agonist activity at the mouse and human CX3CR1 receptor using cell membranes from CHO-K1 cells expressing recombinant mouse or human CX3CR1. For agonist testing, membranes are mixed with GDP. In parallel, GTPγ[^35S] is mixed with the beads just before starting the reaction. The following reagents are successively added in the wells of an Optiplate (Perkin Elmer): 50 μL of test or reference ligand, 10 μL of assay buffer, 20 μL of the membranes:GDP mix, and 20 μL of the GTPγ[^35S]:beads mix. The plates are covered with a top seal, mixed on an orbital shaker for 2 min, and then incubated for 1 hour at room temperature. Then the plates are centrifuged for 10 min at 2000 rpm, incubated at room temperature 1 hour and counted for 1 min/well with a PerkinElmer TopCount reader.
On the technique in general: In a scintillation proximity assay essentially only radioactivity close to the scintillant gives light.

Assay [4] concerns the target T3, hCX3CR1 (Homo sapiens, UniProt P49238).
T3 sequence (P49238 1-355): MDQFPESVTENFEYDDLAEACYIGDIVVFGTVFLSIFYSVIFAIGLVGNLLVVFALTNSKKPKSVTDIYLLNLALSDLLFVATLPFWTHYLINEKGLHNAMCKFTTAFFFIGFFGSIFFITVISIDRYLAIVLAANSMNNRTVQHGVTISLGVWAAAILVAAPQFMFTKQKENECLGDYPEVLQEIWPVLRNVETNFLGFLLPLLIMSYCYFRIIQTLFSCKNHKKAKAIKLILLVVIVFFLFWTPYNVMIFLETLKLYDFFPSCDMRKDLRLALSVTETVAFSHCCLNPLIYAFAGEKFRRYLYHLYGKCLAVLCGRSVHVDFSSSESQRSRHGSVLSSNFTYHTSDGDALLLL
The assay is described as above. More on the design: expressed in transfected cells; host or cells: CHO-K1 cell membranes. It counts as biochemical. The method, then:
as §1, §2

What is called EC50 is the concentration giving half of the maximal effect. A higher EC50 goes with a less potent agent. As to `O=C(NCC1(CN2CCC(O)C2)CCCC1)c1cc2c(s1)CCCCCC2` (racemic) [Example 25, N-[[1-[(3-hydroxypyrrolidin-1-yl)methyl]cyclopentyl]methyl]-4,5,6,7,8,9-hexahydrocycloocta[b]thiophene-2-carboxamide], the EC50 in assay [1] is 39.7 µM.
For orientation: Emax means the greatest response seen or fitted, relative to the assay's reference. `CC(C)(CNC(=O)c1cc2c(s1)CCCCCC2)CN1CCCC1` [Example 1, N-(2,2-dimethyl-3-pyrrolidin-1-ylpropyl)-4,5,6,7,8,9-hexahydrocycloocta[b]thiophene-2-carboxamide]: the “THP-1 cell adhesion to HepG2 cells” value in assay [2] was “prevented THP-1 adhesion to HepG2 cells in a dose-dependent manner”. The EC50 in assay [3] worked out at 41.4 µM; in assay [4], 1300 nM; in assay [1], 15.7 µM. Besides, the Emax in assay [3] was 44%; in assay [4] it was 60%.
`CN(C)CC1(CNC(=O)c2cc3c(s2)CCCCCC3)CCCC1` [Example 2, N-[[1-[(dimethylamino)methyl]cyclopentyl]methyl]-4,5,6,7,8,9-hexahydrocycloocta[b]thiophene-2-carboxamide]: the “THP-1 cell adhesion to HepG2 cells” value in assay [2] is “prevented THP-1 adhesion to HepG2 cells in a dose-dependent manner”. For the same molecule, the EC50 in assay [3] came out at 8.5 µM; in assay [4], 800 nM; in assay [1] it was 10.3 µM. Further, the Emax in assay [3] is 55%; in assay [4], 80%.
In the case of `O=C(NCC1(CN2CCCC2)CCCC1)c1cc2c(s1)CCCCCC2` [Example 5, N-[[1-(pyrrolidin-1-ylmethyl)cyclopentyl]methyl]-4,5,6,7,8,9-hexahydrocycloocta[b]thiophene-2-carboxamide], in assay [1], the EC50 was 11.3 µM.
Consider `CC(C)(CNC(=O)c1cc2c(s1)CCCCCC2)CN1CCCCC1` [Example 13, N-(2,2-dimethyl-3-piperidin-1-ylpropyl)-4,5,6,7,8,9-hexahydrocycloocta[b]thiophene-2-carboxamide], for which the EC50 in assay [1] worked out at 16 µM.
Still for that read-out and setting: the same measure for `O=C(NCC1(CN2CCCCC2)CCCC1)c1cc2c(s1)CCCCCC2` [Example 15, N-[[1-(piperidin-1-ylmethyl)cyclopentyl]methyl]-4,5,6,7,8,9-hexahydrocycloocta[b]thiophene-2-carboxamide]: 24.2 µM; for `O=C(NCC1(CN2CCCC2)CCC1)c1cc2c(s1)CCCCCC2` [Example 21, N-[[1-(pyrrolidin-1-ylmethyl)cyclobutyl]methyl]-4,5,6,7,8,9-hexahydrocycloocta[b]thiophene-2-carboxamide]: 6.6 µM; for `CN(C)CC1(CNC(=O)c2cc3c(s2)CCCCCC3)CCC1` [Example 23, N-[[1-[(dimethylamino)methyl]cyclobutyl]methyl]-4,5,6,7,8,9-hexahydrocycloocta[b]thiophene-2-carboxamide]: 11.5 µM.
`O=C(NCC1(CN2CCCC(O)C2)CCCC1)c1cc2c(s1)CCCCCC2` (stereo not shown) [Example 27, N-[[1-[(3-hydroxypiperidin-1-yl)methyl]cyclopentyl]methyl]-4,5,6,7,8,9-hexahydrocycloocta[b]thiophene-2-carboxamide] showed an EC50 in assay [1] of 12.7 µM.
As for `O=C(NCC1(CN2CCC(O)CC2)CCCC1)c1cc2c(s1)CCCCCC2` [Example 28, N-[[1-[(4-hydroxypiperidin-1-yl)methyl]cyclopentyl]methyl]-4,5,6,7,8,9-hexahydrocycloocta[b]thiophene-2-carboxamide], the EC50 in assay [1] stood at 10 µM.
Molecule `CN(CCO)CC1(CNC(=O)c2cc3c(s2)CCCCCC3)CCC1` [Example 30, N-[[1-[[2-hydroxyethyl(methyl)amino]methyl]cyclobutyl]methyl]-4,5,6,7,8,9-hexahydrocycloocta[b]thiophene-2-carboxamide] registered an EC50 in assay [1] of 17 µM.
As to `CN(C)CC1(CNC(=O)c2cc3c(s2)CCCCCC3)CC(O)C1` (stereo not shown) [Example 31, N-[[1-[(dimethylamino)methyl]-3-hydroxycyclobutyl]methyl]-4,5,6,7,8,9-hexahydrocycloocta[b]thiophene-2-carboxamide], in assay [1], the EC50 is 18.5 µM.
The same measure, in the same setting: with `O=C(NCC1(CN2CCCC2)CC(O)C1)c1cc2c(s1)CCCCCC2` (stereo not shown) [Example 32, N-[[3-hydroxy-1-(pyrrolidin-1-ylmethyl)cyclobutyl]methyl]-4,5,6,7,8,9-hexahydrocycloocta[b]thiophene-2-carboxamide] the figure was 14.8 µM.
As for `CN(C)CC(C)(C)CNC(=O)c1cc2c(s1)CCCCCC2` [Example 70, N-[3-(dimethylamino)-2,2-dimethylpropyl]-4,5,6,7,8,9-hexahydrocycloocta[b]thiophene-2-carboxamide], the figures for the EC50 in assay [3], in assay [4] and in assay [1] were over 50 µM, 4100 nM and 44.7 µM, respectively. Moreover, the Emax in assay [3] came out at 26%; in assay [4], 61%.
